Source: PubChem BioAssay AID1199 (EPA DSSTox, 2008)
The source made the active and inactive calls.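 How the source made its calls: active means a tumour-causing dose and a tumour site recorded for mice in at least one sex group; inconclusive means only government mouse studies exist and were judged inadequate; inactive means mouse studies exist but none gave tumours.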

Test system: mouse carcinogenicity bioassay, TD50 from CPDB
Assay: DSSTox (CPDBAS) Carcinogenic Potency Database Summary Mouse Bioassay Results
From the text: The Carcinogenic Potency Database (CPDB) is a unique and widely used international resource of the results of over 6500 chronic, long-term animal cancer tests on over 1500 chemical substances. The CPDB provides easy access to the bioassay literature, with qualitative and quantitative analyses of both positive and negative experiments that have been published over the past 50 years in the general literature and by the National Cancer Institute/National Toxicology Program. The CPDB standardizes the diverse literature of cancer bioassays that vary widely in protocol, histopathological examination and nomenclature, and in the published author's choices of what information to provide in their papers. Results are reported in the CPDB for tests in rats, mice, hamsters, dogs, and nonhuman primates, and are based on the most positive result among all experiments for each sex-species. The DSSTox CPDBAS (all species) file incorporates data from the CPDB Summary Tables for the full list of over 1500 chemical substances tested in at least one species. Summary bioassay results for Mouse (TD50, tumor sites, male, female, both sexes) are provided in the CPDB Summary Tables and the DSSTox CPDBAS file for over 1000 chemical substances.
TD50 is a standardized quantitative measure of carcinogenic potency (analogous to an LD50) and is reported in the CPDB Summary Table for each species. Activity Score for actives is computed by mapping of LOG10 (1/TD50_Mouse_mmol) activity values spanning range [MIN, MAX] onto Integer 1-100 Activity Score range, where 100 is highest potency and 1 is lowest: Activity Score = 100 * INTEGER[(log10(1/Activity) - MIN)/(MAX […] MIN)]. If activity is reported but no TD50_Mouse_mmol value is computed, such as for a mixture, the Activity Score is assigned the activity value "50". […] Target sites are reported for each sex-species group with a positive result in the CPDB on the basis of a positive author's opinion for the particular site, using all results from both the general literature and NCI/NTP bioassays. If a chemical has two or more target sites listed, the results may be from different experiments, and a single site may be a target organ in more than one experiment, as well. Blank entry in TargetSites field indicates no results reported.

[1] = TD50_Mouse_Note: no positive results, TargetSites_Mouse_Female: no positive results
[2] = TD50_Mouse_Note: TD50 is harmonic mean of more than one positive test, TargetSites_Mouse_Female: lung, vascular system
[3] = TargetSites_Mouse_Female: liver
[4] = TD50_Mouse_Note: TD50 is harmonic mean of more than one positive test, TargetSites_Mouse_Female: lung
[5] = TargetSites_Mouse_Female: no positive results
[6] = TD50_Mouse_Note: TD50 is harmonic mean of more than one positive test, TargetSites_Mouse_Female: liver

## C=CCl
TD50_Mouse_Note: TD50 is harmonic mean of more than one positive test, TargetSites_Mouse_Female: lung, mammary gland, vascular system
  Potency: 0.349 mmol/kg/day

## C[C@H]([C@H](O)CCC(C)(C)O)[C@H]1CC[C@@]2(O)C3=CC(=O)[C@@H]4C[C@@H](O)[C@@H](O)C[C@]4(C)[C@H]3CC[C@]12C
TD50_Mouse_Note: TD50 is harmonic mean of more than one positive test, TargetSites_Mouse_Female: mammary gland
  Potency: 7.7e-05 mmol/kg/day

## ClC#CCl
TD50_Mouse_Note: TD50 is harmonic mean of more than one positive test, TargetSites_Mouse_Female: harderian gland, kidney
  Potency: 0.00605 mmol/kg/day

## C#C[C@]1(O)CC[C@H]2[C@@H]3CCc4cc(OC)ccc4[C@H]3CC[C@@]21C
[1]
  outcome: inactive; no positive results

## Clc1nc(Cl)nc(Nc2ccccc2Cl)n1
[1]
  outcome: inactive; no positive results

## COC(=O)C1=CCCN(C)C1
[2]
  Potency: 0.206 mmol/kg/day

## NNc1nc(-c2ccc([N+](=O)[O-])cc2)cs1
TargetSites_Mouse_Female: hematopoietic system
  Potency: 0.0449 mmol/kg/day

## NNC(=O)c1ccncc1
TD50_Mouse_Note: TD50 is harmonic mean of more than one positive test, greater than ten-fold variation among TD50 values for positive res, TargetSites_Mouse_Female: liver, lung, TargetSites_Mouse_BothSexes: mammary gland
  Potency: 0.198 mmol/kg/day

## O=C1CCc2ccccc2O1
[3]
  Potency: 4.88 mmol/kg/day

## Cl[C@H]1OCCO[C@@H]1Cl
[1]
  outcome: inactive

## O=C(Nc1nc(-c2ccc([N+](=O)[O-])o2)cs1)C(F)(F)F
TargetSites_Mouse_Female: stomach
  Potency: 0.0325 mmol/kg/day

## O=c1ccc(=O)[nH][nH]1
[1]
  outcome: inactive; no positive results

## CC(C)Nc1nc(Cl)nc(NC(C)C)n1
[1]
  outcome: inactive; no positive results

## [Cl-].[Cl-].[Sn+2]
[1]
  outcome: inactive; no positive results

## CN(C)NC(=O)CCC(=O)O
[2]
  Potency: 6.43 mmol/kg/day

## O=C1C=CC(=O)C=C1
TD50_Mouse_Note: TD50 is harmonic mean of more than one positive test, TargetSites_Mouse_Female: hematopoietic system
  Potency: 0.0469 mmol/kg/day

## CC(C)(C)c1cc(O)ccc1O
[1]
  outcome: inactive; no positive results

## O=CCBr
[1]
  outcome: inactive; no positive results

## ClCCCl
TD50_Mouse_Note: TD50 is harmonic mean of more than one positive test, TargetSites_Mouse_Female: liver, lung, mammary gland, uterus
  Potency: 1.39 mmol/kg/day

## C=C1C(CCl)(CCl)C2(Cl)C(Cl)C(Cl)C1(Cl)C2(Cl)Cl (stereo not given)
TD50_Mouse_Note: TD50 is harmonic mean of more than one positive test, TD50_Mouse_mmol was not calculated for this mixture, but Activiity, TargetSites_Mouse_Female: liver
  outcome: active; liver

## O=c1ccc2ccccc2o1
TD50_Mouse_Note: TD50 is harmonic mean of more than one positive test, TargetSites_Mouse_Female: liver, lung
  Potency: 0.705 mmol/kg/day

## CN(N=O)C1=Nc2ccc(Cl)cc2C(c2ccccc2)=[N+]([O-])C1
[1]
  outcome: inactive; no positive results

## ClC1=C(Cl)[C@]2(Cl)[C@@H]3[C@@H]4C[C@@H]([C@H]5O[C@@H]45)[C@@H]3[C@@]1(Cl)C2(Cl)Cl
TD50_Mouse_Note: TD50 is harmonic mean of more than one positive test, harmonic mean of TD50 includes a value for upper 99% confidence li, TargetSites_Mouse_Female: liver
  Potency: 0.00239 mmol/kg/day

## Clc1ccc(C(c2ccc(Cl)cc2)C(Cl)Cl)cc1
[4]
  Potency: 0.0959 mmol/kg/day

## Cc1ccc2c(c1N)C(=O)c1ccccc1C2=O
[3]
  Potency: 0.733 mmol/kg/day

## CCNC(=S)NCC
[1]
  outcome: inactive; no positive results

## CC(C)CON=O
[4]
  Potency: 3.01 mmol/kg/day

## CCCC(Cl)CCC(Cl)CCC(Cl)CCC(Cl)CCC(Cl)CCC(Cl)CCC(C)Cl (stereo not given)
[5]
  Potency: 11.6 mmol/kg/day

## Cc1ccc(C)c(OCCCC(C)(C)C(=O)O)c1
[1]
  outcome: inactive; no positive results

## Nc1ccc(Oc2ccc(N)c(N)c2)cc1
  Potency: 0.0618 mmol/kg/day

## CCN(CC)C(=S)[S-].CCN(CC)C(=S)[S-].[Zn+2]
[1]
  outcome: inactive; no positive results

## S=C([S-])NCCNC(=S)[S-].[Mn+2]
[1]
  outcome: inactive; no positive results

## C=CCN(N)CC=C
TD50_Mouse_Note: TD50 is harmonic mean of more than one positive test, TargetSites_Mouse_Female: lung, stomach
  Potency: 0.264 mmol/kg/day

## Nc1nc(N)c2nc(-c3ccccc3)c(N)nc2n1
[6]
  Potency: 0.238 mmol/kg/day

## ClCC(Cl)(Cl)Cl
[6]
  Potency: 1.08 mmol/kg/day

## Cc1c([N+](=O)[O-])c(C)c([N+](=O)[O-])c(C(C)(C)C)c1[N+](=O)[O-]
[6]
  Potency: 0.427 mmol/kg/day

## CCOC(N)=O
TD50_Mouse_Note: TD50 is harmonic mean of more than one positive test, greater than ten-fold variation among TD50 values for positive res, TargetSites_Mouse_Female: lung
  Potency: 0.19 mmol/kg/day

## CC(=O)Nc1ccc(OCC(O)CNC(C)C)cc1 (stereo not given)
[1]
  outcome: inactive; no positive results

## c1ccc(Nc2ccc3ccccc3c2)cc1
[1]
  outcome: inactive; no positive results

## O=C(O)CCl
[1]
  outcome: inactive; no positive results

## CN(C)[C@@H]1C(=O)C(C(N)=O)=C(O)[C@@]2(O)C(=O)C3=C(O)c4c(O)cccc4[C@@](C)(O)[C@H]3C[C@@H]12
[1]
  outcome: inactive; no positive results

## CCCCCCCCCCCCN=C(N)N
[1]
  outcome: inactive; no positive results

## FC(F)OC(Cl)C(F)(F)F (stereo not given)
[1]
  outcome: inactive; no positive results

## OCC(CO)N[C@H]1C[C@](O)(CO)[C@@H](O)[C@H](O)[C@H]1O
[1]
  outcome: inactive; no positive results

## FC(F)Cl
[1]
  outcome: inactive; no positive results

## O=C1CN=C(c2ccccc2)c2cc(Cl)ccc2N1CC1CC1
[1]
  outcome: inactive; no positive results

## CN(C)C(=O)NC1CC2CC1C1CCCC21 (stereo not given)
[1]
  outcome: inactive; no positive results

## O=[N+]([O-])c1c(Cl)c(Cl)c(Cl)c(Cl)c1Cl
[5]
  Potency: 0.241 mmol/kg/day

## C=CCCl
[1]
  outcome: inactive; no positive results

## O=NN1CCN(N=O)CC1
TD50_Mouse_Note: TD50 is harmonic mean of more than one positive test, TargetSites_Mouse_Female: stomach
  Potency: 0.025 mmol/kg/day
